The results in this text go back to patent publication US12122833B2, “Combination therapies of HDAC inhibitors and PD-1 inhibitors” (HUYABIO International, LLC, priority 2016, dated 2024).

Structures are written as SMILES.

This assay relates to MC38 murine colon carcinoma cells. Briefly: Example 2: tumor growth delay, MC38 tumors (5×10^5 cells) in C57BL/6 mice. The class given is in vivo, mouse. The note with it: HBI-8000 50 mg/kg p.o. qd×21, anti-PD-1 5 mg/kg i.p. biwk×3. How it is done: Animals that exited the study for tumor volume endpoint were documented as euthanized for tumor progression (TP), with the date of euthanasia. The time to endpoint (TTE) for analysis was calculated for each mouse by the following equation:
[formula] where TTE is expressed in days, endpoint volume is expressed in mm^3, b is the intercept, and m is the slope of the line obtained by linear regression of a log-transformed tumor growth data set. The data set consisted of the first observation that exceeded the endpoint volume used in analysis and the three consecutive observations that immediately preceded the attainment of this endpoint volume. The calculated TTE is usually less than the TP date, the day on which the animal was euthanized for tumor burden. […] In instances in which the log-transformed calculated TTE preceded the day prior to reaching endpoint or exceeded the day of reaching tumor volume endpoint, a linear interpolation was performed to approximate the TTE. […]
Treatment Outcome: Treatment outcome was evaluated from tumor growth delay (TGD), which is defined as the increase in the median time to endpoint (TTE) in a treatment group compared to the control group: TGD=T−C expressed in days, or as a percentage of the median TTE of the control group: […]
Treatment Efficacy: Treatment efficacy may be determined from the tumor volumes of animals remaining in the study on the last day. […]

Take `Nc1cc(F)ccc1NC(=O)c1ccc(CNC(=O)/C=C/c2cccnc2)cc1` [HBI-8000, N-(2-amino-4-fluorophenyl)-4-[[[(2E)-1-oxo-3-(3-pyridinyl)-2-propen-1-yl]amino]methyl]benz amide]: the “Median TTE” value (endpoint 1000 mm^3 or Day 50, n=10) is on record as 19.4 days. The “% TGD” value (vs vehicle) was 19%.
